# According to patent US20260191991A1, “COMPSTATIN ANALOGS FOR VECTOR-BASED THERAPY” (AMYNDAS PHARMACEUTICALS US LLC, priority 2022, published 2026):
# Where a SMILES comes first, the peptide text is derived from it. Bridges are numbered along the chain shown (N, C = ends). Where no end group is shown, it is not given here.
# Experiments:
# [1] = biological target: T1, C3 (Homo sapiens, UniProt P01024); details: background statement; cited from earlier work
# Target sequence in this assay (P01024 23-1663): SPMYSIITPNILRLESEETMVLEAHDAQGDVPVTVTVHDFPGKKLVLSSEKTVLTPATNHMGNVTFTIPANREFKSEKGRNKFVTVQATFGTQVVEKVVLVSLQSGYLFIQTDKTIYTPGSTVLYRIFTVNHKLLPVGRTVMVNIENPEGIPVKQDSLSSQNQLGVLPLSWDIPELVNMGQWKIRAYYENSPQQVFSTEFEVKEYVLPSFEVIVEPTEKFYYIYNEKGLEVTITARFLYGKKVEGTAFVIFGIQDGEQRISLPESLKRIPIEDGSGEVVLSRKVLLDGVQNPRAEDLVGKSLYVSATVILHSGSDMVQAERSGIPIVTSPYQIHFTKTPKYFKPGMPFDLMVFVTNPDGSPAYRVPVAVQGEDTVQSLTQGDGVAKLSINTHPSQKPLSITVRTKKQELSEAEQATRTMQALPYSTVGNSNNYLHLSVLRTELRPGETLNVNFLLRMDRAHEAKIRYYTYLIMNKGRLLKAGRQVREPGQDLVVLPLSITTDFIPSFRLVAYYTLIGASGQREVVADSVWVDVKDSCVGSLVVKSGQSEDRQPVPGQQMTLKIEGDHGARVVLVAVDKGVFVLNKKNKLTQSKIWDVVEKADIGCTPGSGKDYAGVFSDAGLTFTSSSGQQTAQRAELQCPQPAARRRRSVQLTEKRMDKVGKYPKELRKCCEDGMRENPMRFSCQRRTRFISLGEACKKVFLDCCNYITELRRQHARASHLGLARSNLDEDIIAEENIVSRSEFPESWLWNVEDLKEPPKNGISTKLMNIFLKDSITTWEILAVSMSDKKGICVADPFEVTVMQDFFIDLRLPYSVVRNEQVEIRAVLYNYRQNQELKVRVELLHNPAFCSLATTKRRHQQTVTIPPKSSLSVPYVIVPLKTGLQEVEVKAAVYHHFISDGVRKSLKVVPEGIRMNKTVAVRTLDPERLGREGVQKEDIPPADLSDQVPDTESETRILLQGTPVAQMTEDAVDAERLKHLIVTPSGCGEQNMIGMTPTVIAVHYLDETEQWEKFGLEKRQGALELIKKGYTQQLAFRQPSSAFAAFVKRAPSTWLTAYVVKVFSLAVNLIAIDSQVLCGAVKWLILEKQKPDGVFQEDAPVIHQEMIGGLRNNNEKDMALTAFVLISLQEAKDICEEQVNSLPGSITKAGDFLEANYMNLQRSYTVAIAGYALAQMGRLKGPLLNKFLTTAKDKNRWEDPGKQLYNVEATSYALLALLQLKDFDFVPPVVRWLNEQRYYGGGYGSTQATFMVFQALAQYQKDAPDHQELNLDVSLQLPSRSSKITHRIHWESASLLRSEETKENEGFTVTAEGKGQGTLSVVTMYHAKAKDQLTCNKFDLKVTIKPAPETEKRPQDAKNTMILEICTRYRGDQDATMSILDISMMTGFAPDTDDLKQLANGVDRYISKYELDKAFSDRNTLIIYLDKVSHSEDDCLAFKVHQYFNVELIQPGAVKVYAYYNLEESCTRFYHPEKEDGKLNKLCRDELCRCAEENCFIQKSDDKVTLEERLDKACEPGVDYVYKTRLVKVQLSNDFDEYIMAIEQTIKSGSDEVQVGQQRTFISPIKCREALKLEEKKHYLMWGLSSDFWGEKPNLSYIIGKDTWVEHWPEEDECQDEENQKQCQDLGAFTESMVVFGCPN
# [2] = Solubility in DPBS (Table 1); type: physicochemical; details: Dulbecco's phosphate buffered saline; measured as OD (280 nm) at saturation
# [3] = biological target: T1, C3; assay: KD (Table 1); type: binding
# [4] = tested on: laser-induced choroidal neovascularization (CNV); assay: Laser-induced choroidal neovascularization, nonhuman primate model of wet-type AMD, fluorescein angiography lesion grading; type: in vivo, macaque; details: for CNV lesion size, % of baseline: third Cp50-treated animal (K-2434)
# Procedure: The effects of the compstatin analogue Cp50 (described above) were compared vs. vehicle, in a nonhuman primate model of wet-type age-related macular degeneration (AMD). In this model, laser-induced choroidal neovascularization (CNV) was performed in the eyes of macaques.
# Laser-induced CNV was performed in both eyes of the macaques, as described below. Two weeks (Day 14) after laser photocoagulation, laser lesions were graded (Grade 1-4) via fluorescein angiograms (FA).
# Under ketamine (15 mg/kg, i.m.) and xylazine (2 mg/kg, i.m), on Day 15, the eyes were intravitreally (IVT) injected with either vehicle, or compstatin Cp50. FA measurements were performed on weeks 4, 6, 8 10 and 12 (total of five times), following CNV.
# Briefly, under light ketamine (10 mg/kg, i.m.) anesthesia, the pupils were dilated with tropicamide/phenylephrine (Mydrin-P® ophthalmic solution; Santen Pharmaceutical Co., Osaka, Japan). For the laser treatment, the macaques were anesthetized with a combination of ketamine (15 mg/kg, i.m.; Daiichi Sankyo Propharma Co., Tokyo, Japan) and xylazine (2 mg/kg, i.m.; Bayer Yakuhin, Osaka, Japan). A green laser (900 mW output; Green Scan Laser Photocoagulator, GYC-500, Nidek, Co., Gamagori, Japan) was applied to eight spots (about 75 μm, 0.1 s duration) around the macula in a grid pattern. The extent of CNV lesion was assessed using fluorescence angiography (FA) at predetermined time points.
# On the day of lesion grading, under light ketamine (10 mg/kg, i.m.) anesthesia, the pupils were dilated with tropicamide/phenylephrine (Mydrin-P® ophthalmic solution), and then the macaques were anesthetized with a combination of ketamine (15 mg/kg, i.m.) and xylazine (2 mg/kg, i.m).
# Fluorescence Angiography (FA) was used to check the extent of CNV in the back of the eye. Ten percent sodium fluorescein (Fluorescite®; 10 mg/kg, i.v.; Novartis, Tokyo, Japan) was injected and a fundus camera took pictures of the back of the eye at about 1, 3, and 5 min after i.v. injection.
# Following randomization, under ketamine (15 mg/kg, i.m.) and xylazine (2 mg/kg, i.m), on Day 15, the eyes were intravitreally (IVT) injected with 50 μl of either vehicle, or Cp50. Before IVT injection, eyes were treated twice daily for three days with levofloxacin hydrate (0.5%; Cravit®, Santen Pharmaceutical Co.).
# Under anesthesia, a solution of tropicamide/phenylephrine HCl (Mydrin®-P), levofloxacin hydrate (0.5%; Santen Pharmaceutical Co.), and oxybuprocaine HCl (0.4%; Santen Pharmaceutical Co.) was instilled before dosing.
# [5] = biological target: T2, C3 protein (UniProt P01024 23-1663, limits assumed); assay: method not stated (Table 1; target C3 implied)
# T2 construct: also called complement component C3; plasma protein C3
# T2 sequence (P01024 23-1663 limits assumed): as the sequence (P01024 23-1663) above
molecule,measurement,setting,value
CC[C@H](C)[C@H](N)C(=O)N[C@H]1CSSC[C@@H](C(=O)N[C@H](C(N)=O)[C@@H](C)O)NC(=O)[C@H](CCCN=C(N)N)NC(=O)[C@H](Cc2cnc[nH]2)NC(=O)[C@H](Cc2cnc[nH]2)NC(=O)CNC(=O)[C@H](Cc2c[nH]c3ccccc23)NC(=O)[C@H](CC(=O)O)NC(=O)[C@H](CCC(N)=O)NC(=O)[C@H](C(C)C)NC(=O)[C@H](C(C)C)NC1=O [Compstatin],binding affinity for C3,[1],micromolar
"CC[C@H](C)[C@H](NC(=O)[C@H](N)Cc1ccc(O)cc1)C(=O)N[C@H]1CSSC[C@@H](C(=O)N(C)[C@H](C(N)=O)[C@@H](C)CC)NC(=O)[C@H](CCCNC(=N)N)NC(=O)[C@H](Cc2c[nH]cn2)NC(=O)[C@H](C)NC(=O)CN(C)C(=O)[C@H](Cc2c[nH]c3ccccc23)NC(=O)[C@H](CC(=O)O)NC(=O)[C@H](CCC(N)=O)NC(=O)[C@H](Cc2cn(C)c3ccccc23)NC(=O)[C@H](C(C)C)NC1=O [Cp40, dTyr-Ile-[Cys-Val-1MeTrp-Gln-Asp-Trp-Sar-Ala-His-Arg-Cys]-mIle, reference compound]",Solubility DPBS,[2],0.8 mg/mL
"CC[C@H](C)[C@H](NC(=O)[C@@H]1CSSC[C@H](NC(=O)[C@@H](NC(=O)[C@@H](N)Cc2ccc(O)cc2)[C@@H](C)CC)C(=O)N[C@@H]([C@@H](C)CC)C(=O)N[C@@H](Cc2c[nH]c3ccccc23)C(=O)N[C@@H](CCC(N)=O)C(=O)N[C@@H](CC(=O)O)C(=O)N[C@@H](Cc2c[nH]c3ccccc23)C(=O)NCC(=O)N[C@@H](C)C(=O)N[C@@H](Cc2c[nH]cn2)C(=O)N[C@@H](CCCNC(=N)N)C(=O)N1)C(=O)N[C@@H](CCCCN)C(=O)N[C@@H](CCCCN)C(=O)N[C@@H](CCCCN)C(=O)O [Cp50] (HELM PEPTIDE1{Y.I.C.I.W.Q.D.W.G.A.H.R.C.I.K.K.K}$PEPTIDE1,PEPTIDE1,3:R3-13:R3$$$V2.0; N-terminus and C-terminus assumed)",solubility,[2],> 250 mg/mL
same,Kd,[3],0.5 nM
same,mean Grade 4 lesion compared to eyes treated with vehicle,"[4]; Weeks 4, 6, 8 and 12, intravitreal injection on Day 15",reduced
same,"CNV lesion size, % of baseline",[4]; by week 6,50%
same,"CNV lesion size, % of baseline",[4]; by week 12,25%
same,CNV lesion size,"[4]; two Cp50-treated eyes, as early as week 4 post laser-induced CNV",decline
same,reduction of Grade 4 lesion ratios,"[4]; two Cp50-treated eyes, from week 6 onwards until week 12",100%
"CC[C@H](C)[C@H](NC(=O)[C@@H]1CSSC[C@H](NC(=O)[C@@H](NC(=O)[C@@H](N)Cc2ccc(O)cc2)[C@@H](C)CC)C(=O)N[C@@H]([C@@H](C)CC)C(=O)N[C@@H](Cc2c[nH]c3ccccc23)C(=O)N[C@@H](CCC(N)=O)C(=O)N[C@@H](CC(=O)O)C(=O)N[C@@H](Cc2c[nH]c3ccccc23)C(=O)NCC(=O)N[C@@H](CCC(=O)O)C(=O)N[C@@H](Cc2c[nH]cn2)C(=O)N[C@@H](CCCNC(=N)N)C(=O)N1)C(=O)N[C@@H](CCCCN)C(=O)N[C@@H](CCCCN)C(=O)N[C@@H](CCCCN)C(=O)O [Cp51] (HELM PEPTIDE1{Y.I.C.I.W.Q.D.W.G.E.H.R.C.I.K.K.K}$PEPTIDE1,PEPTIDE1,3:R3-13:R3$$$V2.0; N-terminus and C-terminus assumed)",solubility,[2],> 250 mg/mL
YICIWQDWGEHRCIKKK (disulfide 3-13) [Cp51],Kd,[5],1 nM
